Usually solubility stands for how much of the substance goes into solution per volume.

The nature of this series: aqueous solubility of the starting material. To be noted: aqueous buffer; 25° C., 20 mM phosphate buffer, pH 7; read-out: water solubility (aqueous solubility limit). The format is physicochemical. As to the method: The enzyme-catalyzed conversion of II to I can be carried out by contacting II with the enzyme catalyst in an aqueous reaction mixture. Compound II, the starting material, which is only moderately water soluble, (ca. 10 mM, 25° C., 20 mM phosphate buffer, pH 7), can be added to an aqueous reaction containing the enzyme catalyst at levels exceeding its aqueous solubility limit. Thus reaction mixtures initially consist of two phases, an aqueous phase containing dissolved II and the enzyme catalyst, and a solid phase containing undissolved II. At complete conversion of II, a single phase containing compound I and the enzyme catalyst remains. The enzyme catalyzed conversion of II to I can be carried out with levels of compound II from about 0.1 g/L to 148 g/L, with a preferred range of about 0.1 g/L to 90 g/L. The enzyme catalyst concentrations used in the present invention depend on the specific activity of the enzyme catalyst and is chosen to obtain the desired rate of reaction.

Converted amounts (≈) assume the structure as drawn.

Turning to `N#CCC1(C#N)CCCCC1` [Compound II, 1-cyanocyclohexaneacetonitrile], the solubility was about 10 mM (≈ 1480 µg/mL).

Values taken from US20050009154A1, “Biocatalytic preparation of 1-cyano-cyclohexaneacetic acid” (Pfizer Inc, priority 2003, published 2005).
